In one assay the test system is MALME-3M cells. The experiment in a line: RT-qPCR of RNA levels after hGH addition or GHR-KD. The format is cell-based, human. As to conditions: 0, 5, 50 and 150 ng/mL hGH, 24 hr. As to the method:
(§1) For hGH treatment, 16 hours after seeding (or 24 hours post-transfection), the cells were serum-starved for 2 hours in serum-free growth media, and hGH (phosphate buffered saline was used as control where applicable) was added at the noted concentrations (0-, 5-, 50-, and 150 ng/ml). Cells were subsequently incubated for 24 hours before evaluating RNA levels. Recombinant hGH was purchased from Antibodies Online (#ABIN2017921, Atlanta, Ga.).
(§2) Transfection was performed using siLentFect lipid reagent (Biorad #170-3360, Hercules, Calif.) following the manufacturer's protocol. […] Mock transfections were performed using universal scrambled negative control siRNA-duplex (Origene #SR30004). TYE-563-fluorescent labeled siRNA duplex (Origene #SR30002) was used as the transfection control. Cells were trypsinized, counted using a Countess Automated Cell Counter (Life Technologies, Carlsbad, Calif.), and seeded at 25,000-30,000 cells/cm^2, the cells being allowed to attach for 16-18 hours. The growth media was replaced with fresh antibiotic free complete growth medium just prior to transfection. […] Media was changed to complete growth medium plus antibiotics after 24 hours. RNA levels were analyzed 48 hours post-transfection, and protein levels were analyzed at 60 hours post-transfection.
(§3) RNA extraction was performed using the IBI-Trizol based total RNA purification kit (MidSci #IB47632, St. Louis, Mo.), and reverse transcription was performed using Maxima First Strand cDNA synthesis kit (Thermo Fisher Scientific #K1642, Waltham, Mass.) following the manufacturers' protocols. Real time-quantitative PCR and melt curve analysis were performed using Maxima SYBR-Green qPCR master mix (Thermo Fisher Scientific #K0241) and a T100 thermal cycler (Biorad #1861096, Hercules, Calif.). RNA and DNA concentrations were estimated using a Nanodrop2000 (Thermo Fisher Scientific, Waltham, Mass.) spectrophotometer. Primers were obtained from Sigma-Aldrich for the following human genes, with primer efficiency being experimentally confirmed: GAPDH, b-Actin, GHR, GHRHR, SOCS2, IGF1, IGF1R, IGF2, IGF2R, PRL, PRLR, insulin (Ins), IR, IGFBP2, IGFBP3, EGFR, HGF, cMET and ERBB3. Each sample represented a pool of two replicates per experiment. Experiments were performed at least three times. Each qPCR for individual genes and every treatment for every cell type was performed in triplicates.
(§4) And so—referring now to FIGS. 12A-12B, 17A-17C, 18A-18F, 19A-19F, and 20A-20F—RT-qPCR analysis of GH-IGF axis in human melanoma cells (FIGS. 12A-12B) and RT-qPCR analysis of GH-GHR and PRL-PRLR pairs in human melanoma cells (FIGS. 17A-17C) was performed. […] And, while not shown in FIGS. 12A and 12B, similar results for MALME-3M, MDA-MB-435 and SK-MEL-5 human melanoma cells are presented in FIGS. 13A-13L, 17A-17C, 18A-18F, 19A-19F, and 20A-20F. […] In all cases, exogenous hGH treatment was for 24 hr. RNA levels were normalized against expression of beta-actin and GAPDH as reference genes. […] Cells were grown in presence of 50 ng/mL exogenous GH and protein level changes were estimated 60 hr. post-transfection. [*, p<0.05, Students t test, n=3]. […] The percentage free area at the end time point was calculated using ImageJ software and reflected the decrease/inhibition in migration. […] [*, p<0.05, Students t-test, n=3]. In all cases, exogenous hGH treatment was for 24 hr. RNA levels were normalized against expression of β-actin and GAPDH as reference genes [*, p<0.05, Wilcoxon sign rank test, n=4]. […] In all cases, exogenous hGH treatment was for 24 hr. RNA levels were normalized against expression of β-actin and GAPDH as reference genes. [*, p<0.05, Wilcoxon sign rank test, n=4]

The next assay has as its system MDA-MB-435 cells. The experiment in a line: RT-qPCR of RNA levels after hGH addition or GHR-KD. The format is cell-based, human. As to the method: as §1, §2, §3, §4
On the technique in general: Quantitative PCR measures a nucleic acid by following its amplification.

Another assay deals with SK-MEL-28 cells. The experiment in a line: RT-qPCR of RNA levels after hGH addition or GHR-KD. The class given is cell-based, human. On the procedure:
as §1, §2, §3, §4

A further assay deals with human melanoma cells. Description: RT-qPCR of RNA levels after hGH addition or GHR-KD. The format is cell-based. On the procedure: as §1, §2, §3
And so—referring now to FIGS. 12A-12B, 17A-17C, 18A-18F, 19A-19F, and 20A-20F—RT-qPCR analysis of GH-IGF axis in human melanoma cells (FIGS. 12A-12B) and RT-qPCR analysis of GH-GHR and PRL-PRLR pairs in human melanoma cells (FIGS. 17A-17C) was performed. […] The percentage free area at the end time point was calculated using ImageJ software and reflected the decrease/inhibition in migration. […]

A further assay relates to HepG2 cells. Description: RT-qPCR after GH / GHR-antagonist treatment. The format is cell-based, human. The note with it: 3 days. As to the method: Following treatments, cells were lysed, and RNA extraction was performed using IBI Tri-isolate kit (IBI), following manufacturer's protocol. RT-qPCR was performed as described previously.
And so, the inventors performed a similar experiment with HepG2 and SK-HEP-1 human liver cancer cells, which have been extensively studied and known to express GHR, to verify this observation in human melanoma cells. In vitro, HepG2 cells were treated for 3 days with either 50 ng/mL GH (2.5 nM), or 50 nM […], or both GH and GHR-antagonist, and their RNA expressions were compared against untreated controls at basal condition (i.e. no drug treatment).
The inventors had previously shown that knock-down of GHR in turn strongly attenuates MET as well as HGF transcript levels in human melanoma. To verify this observation in another GHR expressing human cancer like HCC, the inventors analyzed the effects of GH and GHR-antagonist treatment on the expression of the oncogenic HGF-MET loop in human liver cancer cells. HepG2 and SK-HEP-1 cells were treated for 3 days with either 50 ng/mL GH (2.5 nM), or 50 nM GHR-antagonist, or both, and their RNA expressions were compared against untreated controls at basal levels (i.e. no drug treatment). No additional effect of added GH on the expression levels of HGF or MET in the liver cancer cell lines was observed, except a 2-fold increase in MET levels in SK-HEP-1 cells (FIG. 39). […] Irrespective of presence of added GH, the antagonist lowered HGF levels by >4-fold in Hep-G2 cells and up to 2-fold in SK-HEP-1 cells; while the MET levels were decreased by >2-fold in both Hep-G2 and SK-HEP-1 cells compared to the GH treated samples (FIG. 39). This observed nature of the suppressive effect of GHR-antagonist strongly indicates the existence of a autocrine/paracrine GH action in HCC, as the inventors had found stable GH expression in both Hep-G2 and SK-HEP-1 cells.

The test system of assay [1] is Hep-G2 and SK-HEP-1 cells. Description: Time-lapse WB of GH-regulated signaling pathways. The class given is cell-based, human. The note with it: 50 ng/mL GH; within 20 minutes. On the procedure:
Following treatments, cells were lysed by mild sonication in Ripa lysis buffer as described previously. SDS-PAGE and western-blot was performed using general lab-techniques as described previously.

The mark [2] stands for this setting: 0, 5, 50 and 150 ng/mL hGH, 24 hr.
Setting [3] is: SK-MEL-28 and MALME-3M, maximum GH concentrations.

As to “hGH: Recombinant human growth hormone, Antibodies Online #ABIN2017921”, in the assay with MALME-3M cells, the “RNA levels of TYRP1 with GH” value is recorded as “dose-dependent increase”. For the same substance, in the assay with MDA-MB-435 cells, the “E-cadherin RNA levels with increasing GH” value is “decreased significantly”. Further, in the assay with SK-MEL-28 cells, the “IGFBP2 RNA levels at high GH levels” value is recorded as “increase”, the “N-cadherin RNA levels with increase of GH” value was “significant dose-dependent increase” and the “vimentin RNA levels with increase of GH” value is given as “significant dose-dependent increase”. In the assay with SK-MEL-28 cells (setting [2]), the “RNA levels of MITF with GH” value is “dose dependent increase” and the “RNA levels of TYRP1 with GH” value was “dose-dependent increase”. In addition, the “level of decrease of some ABC-transporters in presence of GH” value with human melanoma cells (50 ng/mL GH, with anti-cancer drugs) was around 2 fold. The “ERBB3 RNA levels” value with human melanoma cells (GH stimulation or GHR-KD) is “upregulation”. In addition, in the assay on human melanoma cells (setting [3]), the “HGF expression level upregulated with added GH” value is “more than 2 fold” and the “MET expression level upregulated with added GH” value was “more than 2 fold”. Moreover, in the assay on HepG2 cells (50 ng/mL GH), the “RNA level of CDH1, the epithelial marker” value is given as “downregulating” and the “RNA levels of mesenchymal marker vimentin” value is reported as “significantly upregulate”. Besides, in the assay on HepG2 cells (exogenous GH 50 ng/mL), the “levels of ABCC4 and of the transcription factor SPI-B” value is reported as “markedly upregulated”. Moreover, the “phosphorylation states of STAT3, STAT5, SRC, and ERK1/2 (p44/42 MAPK)” value in assay [1] is on record as “increased significantly”.

Values taken from patent US11473088B2, “Method of treating cancer and method of sensitizing cancer cells to the action of chemotherapeutic agents via growth hormone receptor antagonists or knock down” (Ohio University, priority 2016, dated 2022).
